Data taken from the NIST ThermoML archive (doi:10.1016/j.jct.2006.02.005).
Values joined by “and” are separate entries in the source; they are usually repeats but may differ in a detail not shown here. Equal entries are not always repeated.

Assays:
[1] = for Normal melting temperature: Crystal 1; for Triple point temperature: Crystal 2
[2] = molar heat capacity at constant pressure; conditions: 101.33 kPa
[3] = Molar enthalpy of transition or fusion

CC(N)(CO)CO [2-amino-2-methyl-1,3-propanediol]
[1]
Conditions	Normal melting temperature [°C]	Triple point temperature [K]
–	110.93	355.66

[2]
Conditions	molar heat capacity at constant pressure
193.15 K, Crystal 3	118.91 J/K/mol and 107.45 J/K/mol and 121.86 J/K/mol
198.15 K, Crystal 3	121.86 J/K/mol and 119.23 J/K/mol and 108.93 J/K/mol
203.15 K, Crystal 3	123.22 J/K/mol and 119.86 J/K/mol and 110.29 J/K/mol
208.15 K, Crystal 3	119.54 J/K/mol and 111.13 J/K/mol and 124.91 J/K/mol
213.15 K, Crystal 3	126.27 J/K/mol and 119.96 J/K/mol and 112.18 J/K/mol
218.15 K, Crystal 3	127.85 J/K/mol and 121.12 J/K/mol and 113.66 J/K/mol
223.15 K, Crystal 3	129.11 J/K/mol and 122.28 J/K/mol and 115.97 J/K/mol
228.15 K, Crystal 3	130.37 J/K/mol and 123.22 J/K/mol and 118.39 J/K/mol
233.15 K, Crystal 3	132.06 J/K/mol and 124.17 J/K/mol and 121.02 J/K/mol
238.15 K, Crystal 3	133.84 J/K/mol and 125.85 J/K/mol and 124.17 J/K/mol
243.15 K, Crystal 3	135 J/K/mol and 129.32 J/K/mol and 126.8 J/K/mol
248.15 K, Crystal 3	136.37 J/K/mol and 130.9 J/K/mol and 128.8 J/K/mol
253.15 K, Crystal 3	130.69 J/K/mol and 135.32 J/K/mol and 132.16 J/K/mol
258.15 K, Crystal 3	131.32 J/K/mol and 134.05 J/K/mol and 134.16 J/K/mol
263.15 K, Crystal 3	133 J/K/mol and 134.05 J/K/mol and 136.37 J/K/mol
268.15 K, Crystal 3	134.16 J/K/mol and 135.84 J/K/mol and 137.52 J/K/mol
273.15 K, Crystal 3	134.58 J/K/mol and 137.42 J/K/mol and 138.78 J/K/mol
278.15 K, Crystal 3	136.79 J/K/mol and 139.1 J/K/mol and 140.47 J/K/mol
283.15 K, Crystal 3	139.63 J/K/mol and 140.68 J/K/mol and 142.67 J/K/mol
288.15 K, Crystal 3	142.04 J/K/mol and 143.83 J/K/mol
293.15 K, Crystal 3	143.62 J/K/mol and 144.46 J/K/mol and 145.83 J/K/mol
298.15 K, Crystal 3	145.62 J/K/mol and 146.46 J/K/mol and 148.25 J/K/mol
303.15 K, Crystal 3	147.51 J/K/mol and 148.46 J/K/mol and 151.61 J/K/mol
308.15 K, Crystal 3	148.88 J/K/mol and 150.03 J/K/mol and 153.82 J/K/mol
313.15 K, Crystal 3	150.67 J/K/mol and 151.82 J/K/mol and 154.56 J/K/mol
318.15 K, Crystal 3	151.51 J/K/mol and 154.35 J/K/mol and 155.5 J/K/mol
323.15 K, Crystal 3	152.66 J/K/mol and 156.87 J/K/mol and 158.97 J/K/mol
328.15 K, Crystal 3	154.98 J/K/mol and 159.5 J/K/mol and 164.54 J/K/mol
333.15 K, Crystal 3	157.6 J/K/mol and 162.34 J/K/mol and 168.33 J/K/mol
338.15 K, Crystal 3	160.02 J/K/mol and 165.49 J/K/mol and 171.9 J/K/mol
343.15 K, Crystal 3	163.07 J/K/mol and 168.33 J/K/mol and 176.74 J/K/mol
348.15 K, Crystal 3	186.94 J/K/mol and 175.58 J/K/mol and 198.92 J/K/mol
368.15 K, Crystal 1	297.97 J/K/mol and 303.43 J/K/mol and 287.35 J/K/mol
373.15 K, Crystal 1	299.96 J/K/mol and 302.7 J/K/mol and 289.98 J/K/mol
378.15 K, Crystal 1	306.17 J/K/mol and 309.95 J/K/mol and 295.76 J/K/mol
393.15 K, Liquid	322.67 J/K/mol and 320.57 J/K/mol and 328.56 J/K/mol
398.15 K, Liquid	327.41 J/K/mol and 323.41 J/K/mol and 339.71 J/K/mol
403.15 K, Liquid	331.72 J/K/mol and 325.62 J/K/mol and 352.43 J/K/mol
408.15 K, Liquid	327.83 J/K/mol and 335.19 J/K/mol
413.15 K, Liquid	330.03 J/K/mol

[3]
Conditions	Molar enthalpy of transition or fusion [kJ/mol]
Crystal 1	2.75
Crystal 2	23.5

NC(CO)(CO)CO [2-amino-2-(hydroxymethyl)-1,3-propanediol]
[1]
Conditions	Normal melting temperature [°C]	Triple point temperature [K]
–	171.42	409.2

[2]
Conditions	molar heat capacity at constant pressure
193.15 K, Crystal 2	122.47 J/K/mol and 125.13 J/K/mol and 118.14 J/K/mol
198.15 K, Crystal 2	123.8 J/K/mol and 126.58 J/K/mol and 119.34 J/K/mol
203.15 K, Crystal 2	124.41 J/K/mol and 128.03 J/K/mol and 119.97 J/K/mol
208.15 K, Crystal 2	130.34 J/K/mol and 121.62 J/K/mol and 126.22 J/K/mol
213.15 K, Crystal 2	128.53 J/K/mol and 132.76 J/K/mol and 124.17 J/K/mol
218.15 K, Crystal 2	130.83 J/K/mol and 135.3 J/K/mol and 125.62 J/K/mol
223.15 K, Crystal 2	133.13 J/K/mol and 137.12 J/K/mol and 127.31 J/K/mol
228.15 K, Crystal 2	135.31 J/K/mol and 138.33 J/K/mol and 129.5 J/K/mol
233.15 K, Crystal 2	131.07 J/K/mol and 137.49 J/K/mol and 140.87 J/K/mol
238.15 K, Crystal 2	133.61 J/K/mol and 139.67 J/K/mol and 143.78 J/K/mol
243.15 K, Crystal 2	139.07 J/K/mol and 142.09 J/K/mol and 145.84 J/K/mol
248.15 K, Crystal 2	143.18 J/K/mol and 144.27 J/K/mol and 148.75 J/K/mol
253.15 K, Crystal 2	144.76 J/K/mol and 146.7 J/K/mol and 151.05 J/K/mol
258.15 K, Crystal 2	146.82 J/K/mol and 149.24 J/K/mol and 153.23 J/K/mol
263.15 K, Crystal 2	150.82 J/K/mol and 152.03 J/K/mol and 155.65 J/K/mol
268.15 K, Crystal 2	154.81 J/K/mol and 154.69 J/K/mol and 158.07 J/K/mol
273.15 K, Crystal 2	156.87 J/K/mol and 156.99 J/K/mol and 160.74 J/K/mol
278.15 K, Crystal 2	157.96 J/K/mol and 159.66 J/K/mol and 163.65 J/K/mol
283.15 K, Crystal 2	160.99 J/K/mol and 162.69 J/K/mol and 166.8 J/K/mol
288.15 K, Crystal 2	163.78 J/K/mol and 165.84 J/K/mol and 169.46 J/K/mol
293.15 K, Crystal 2	166.32 J/K/mol and 169.11 J/K/mol and 171.4 J/K/mol
298.15 K, Crystal 2	169.83 J/K/mol and 171.89 J/K/mol and 174.79 J/K/mol
303.15 K, Crystal 2	172.14 J/K/mol and 174.44 J/K/mol and 179.03 J/K/mol
308.15 K, Crystal 2	173.95 J/K/mol and 177.34 J/K/mol and 182.3 J/K/mol
313.15 K, Crystal 2	175.89 J/K/mol and 180.01 J/K/mol and 185.33 J/K/mol
318.15 K, Crystal 2	180.37 J/K/mol and 182.55 J/K/mol and 188.36 J/K/mol
323.15 K, Crystal 2	185.82 J/K/mol and 185.1 J/K/mol and 191.63 J/K/mol
328.15 K, Crystal 2	189.46 J/K/mol and 187.4 J/K/mol and 194.41 J/K/mol
333.15 K, Crystal 2	192 J/K/mol and 189.82 J/K/mol and 197.08 J/K/mol
338.15 K, Crystal 2	195.52 J/K/mol and 192.24 J/K/mol and 200.35 J/K/mol
343.15 K, Crystal 2	198.06 J/K/mol and 194.3 J/K/mol and 203.14 J/K/mol
348.15 K, Crystal 2	200.6 J/K/mol and 196.97 J/K/mol and 206.04 J/K/mol
353.15 K, Crystal 2	203.15 J/K/mol and 199.15 J/K/mol and 209.19 J/K/mol
358.15 K, Crystal 2	201.94 J/K/mol and 211.86 J/K/mol and 205.93 J/K/mol
363.15 K, Crystal 2	209.93 J/K/mol and 203.99 J/K/mol and 214.4 J/K/mol
368.15 K, Crystal 2	212.96 J/K/mol and 206.78 J/K/mol and 217.31 J/K/mol
373.15 K, Crystal 2	215.26 J/K/mol and 209.45 J/K/mol and 219.61 J/K/mol
378.15 K, Crystal 2	218.17 J/K/mol and 212.35 J/K/mol and 222.64 J/K/mol
383.15 K, Crystal 2	221.8 J/K/mol and 214.9 J/K/mol and 226.15 J/K/mol
388.15 K, Crystal 2	227.37 J/K/mol and 217.93 J/K/mol and 229.78 J/K/mol
393.15 K, Crystal 2	229.31 J/K/mol and 221.32 J/K/mol and 233.54 J/K/mol
398.15 K, Crystal 2	234.28 J/K/mol and 225.68 J/K/mol and 237.9 J/K/mol
423.15 K, Crystal 1	367.05 J/K/mol and 386.4 J/K/mol and 376.37 J/K/mol
428.15 K, Crystal 1	368.14 J/K/mol and 390.4 J/K/mol and 378.19 J/K/mol
433.15 K, Crystal 1	369.95 J/K/mol and 393.79 J/K/mol and 383.04 J/K/mol
438.15 K, Crystal 1	396.7 J/K/mol and 389.58 J/K/mol and 371.65 J/K/mol
453.15 K, Liquid	395.39 J/K/mol
458.15 K, Liquid	396.6 J/K/mol
463.15 K, Liquid	398.06 J/K/mol
468.15 K, Liquid	400.36 J/K/mol
473.15 K, Liquid	400.72 J/K/mol

[3]
Conditions	Molar enthalpy of transition or fusion [kJ/mol]
Crystal 1	3.1
Crystal 2	33.5
